What follows are compounds tested on 935938-334-R-J1-PDC complex spheroid viability (assay: Anticancer human tumor 935938-334-R-J1-PDC patient-derived small intestine adenocarcinoma cell line growth inhibition [POLQ]). Conditions: curve of first compound; second compound 1 µM.
Description: Multicellular complex tumor spheroid response to Polymerase (POL) inhibitors (novobiocin, ART-558, RP6685) in combination with a variety of drugs and investigational agents in selected tumor cell lines
The POL inhibitors (novobiocin, ART-558, and RP6685) were evaluated both individually and in combination with standard of care and investigational anticancer small molecules within a complex spheroid model of solid tumors. . Complex spheroids include a stromal component modeled by human endothelial cells (HUVEC) and fibroblasts modeled by human mesenchymal stem cells (MSCs). The concentration ranges selected for each drug and investigational agent were based upon clinically achievable concentrations if the clinical Cmax of the agent was known.
Compounds. The drugs and investigational agents: novobiocin (NSC847541), ART-558 (NSC835418), RP-6685 (NSC848927), peposertib (NSC802822), ceralasertib (NSC780249), elimusertib (NSC800525), camonsertib (NSC841442), AZD-1390 (NSC803789), olaparib (NSC753686), talazoparib (NSC767125), rucaparib (NSC756644), sotorasib (NSC818433), MRTX-1133 (NSC836407), SN-38 (NSC673596), topotecan (NSC609699), epotoside (NSC141540), doxorubicin (NSC123127), gemcitabine (NSC613327), 5-fluorouracil (NSC19893), paclitaxel (NSC125973), vemurafenib (NSC761431), MSA-2 (NSC828583), SN-011 (NSC837082), adavosertib (NSC754352), prexasertib (NSC758257), carboplatin (NSC241240) and oxaliplatin (NSC266046), were obtained from the National Cancer Institute (NCI) Developmental Therapeutics Program Chemical Repository (21). The FDA-approved anticancer drug set is available from the Developmental Therapeutics Program at https://dtp.cancer.gov/organization/dscb/obtaining/. […] The stock solutions were prepared in dimethyl sulfoxide (DMSO, Sigma-Aldrich, St. Louis, MO, cat. D2650), except for the platinum compounds which were prepared in saline (Quality Biological, Gaithersburg, MD, cat. 114-055-101), at 800-fold the tested concentration and stored at -70 degrees C prior to their use. All drugs and investigational agents were tested over a range starting from a high concentration at or near the clinical Cmax and decreasing in half-log increments. If the clinical Cmax for an agent had not been determined, the highest concentration tested was 10 microM, except for SN-38, which was tested at a high concentration of 1 microM.
Cell Culture. All cells were maintained in an incubator at 37 degrees C and 5% CO2 with 95% humidity. The PDC lines were cultured according to standard operating procedures established by the NCI PDMR (https://pdmr.cancer.gov). Table 3 of the manuscript, lists the cell lines along with the number of the three cell types plated to form the mct-spheroids and media for tumor cell growth. After thawing, all PDC lines, except 997537-175-T-J1-PDC and 415267-285-R-J2-PDC, were cultured in Matrigel-coated flasks prepared with a working solution of 1X Ham's F-12 nutrient mix, without supplementation (Thermo Fisher Scientific, cat. 11765054), 100 U/mL penicillin-streptomycin (Thermo Fisher Scientific, cat. 15140122), and 2.5% Matrigel (Corning Inc., Corning, NY, cat. 354248) for the first three passages. The two PDC lines 997537-175-T-J1-PDC and 415267-285-R-J2-PDC were cultured on uncoated flasks. The 857933-349-R-J2-PDC line was cultured in 6C/Colon 1B media containing advanced DMEM/F-12 (Thermo Fisher Scientific, cat. 12634028), 10 mM HEPES (Thermo Fisher Scientific, cat. 15630080), 1X GlutaMAX supplement (Thermo Fisher Scientific, cat. 35050061), 0.1 mg/mL primocin (InvivoGen, San Diego, CA, cat. ant-pm-2), 10% defined fetal bovine serum, heat inactivated (HyClone Laboratories Inc., Logan, UT, cat. SH30070.03HI), 50% L-WRN conditioned media (ATCC, cat. CRL-3276), 1.25 mM N-Acetyl-L-cysteine (Sigma-Aldrich, cat. A9165), 10 mM nicotinamide (Sigma-Aldrich, cat. N0636), 1X B-27 supplement (Thermo Fisher Scientific, cat. 17504044), 1X N-2 supplement (Thermo Fisher Scientific, cat. […]
Compound `CC1COCCN1c1cc(-c2ccnn2C)c2ccnc(-c3ccn[nH]3)c2n1` (centres undefined) + Cc1cccc(N(C)C(=O)C2C(O)CCN2c2nc(C)cc(C(F)(F)F)c2C#N)c1 has an IC50 of 0.125 µM.
`COc1cccc2c1C(=O)c1c(O)c3c(c(O)c1C2=O)CC(O)(C(=O)CO)CC3OC1CC(N)C(O)C(C)O1` (centres undefined) + Nc1ccc(C#CCN(C(=O)Cc2ncc(C(F)(F)F)cc2C(F)(F)F)c2ccc(F)cc2)nn1 showed an IC50 of 0.0546 µM.
In the case of `O=c1[nH]cc(F)c(=O)[nH]1` + Nc1ccc(C#CCN(C(=O)Cc2ncc(C(F)(F)F)cc2C(F)(F)F)c2ccc(F)cc2)nn1, the IC50 is reported as > 10 µM.

Same assay, conditions: curve of first compound; second compound 3.16 µM
`CC1COCCN1c1cc(-c2ccnn2C)c2ccnc(-c3ccn[nH]3)c2n1` (centres undefined) + Cc1cccc(N(C)C(=O)C2C(O)CCN2c2nc(C)cc(C(F)(F)F)c2C#N)c1 showed an IC50 of 0.114 µM.
`COc1cccc2c1C(=O)c1c(O)c3c(c(O)c1C2=O)CC(O)(C(=O)CO)CC3OC1CC(N)C(O)C(C)O1` (centres undefined) + Nc1ccc(C#CCN(C(=O)Cc2ncc(C(F)(F)F)cc2C(F)(F)F)c2ccc(F)cc2)nn1 gave an IC50 of 0.0353 µM.
For `O=c1[nH]cc(F)c(=O)[nH]1` + Nc1ccc(C#CCN(C(=O)Cc2ncc(C(F)(F)F)cc2C(F)(F)F)c2ccc(F)cc2)nn1, the IC50 was > 10 µM.

Same assay, conditions: curve of first compound; second compound 10 µM
`CC1COCCN1c1cc(-c2ccnn2C)c2ccnc(-c3ccn[nH]3)c2n1` (centres undefined) + Cc1cccc(N(C)C(=O)C2C(O)CCN2c2nc(C)cc(C(F)(F)F)c2C#N)c1 showed an IC50 of 0.113 µM.
`COc1cccc2c1C(=O)c1c(O)c3c(c(O)c1C2=O)CC(O)(C(=O)CO)CC3OC1CC(N)C(O)C(C)O1` (centres undefined) + Nc1ccc(C#CCN(C(=O)Cc2ncc(C(F)(F)F)cc2C(F)(F)F)c2ccc(F)cc2)nn1 gave an IC50 of 0.0781 µM.
With `O=c1[nH]cc(F)c(=O)[nH]1` + Nc1ccc(C#CCN(C(=O)Cc2ncc(C(F)(F)F)cc2C(F)(F)F)c2ccc(F)cc2)nn1 the IC50 was > 10 µM.

Same assay, conditions: second compound 0.0316 µM; first compound 0.0316 µM; stronger effect = lower value
Work on `CC1COCCN1c1cc(-c2ccnn2C)c2ccnc(-c3ccn[nH]3)c2n1` (centres undefined) + Cc1cccc(N(C)C(=O)C2C(O)CCN2c2nc(C)cc(C(F)(F)F)c2C#N)c1 yielded a viability, T/C of 93.5%.
`COc1cccc2c1C(=O)c1c(O)c3c(c(O)c1C2=O)CC(O)(C(=O)CO)CC3OC1CC(N)C(O)C(C)O1` (centres undefined) + Nc1ccc(C#CCN(C(=O)Cc2ncc(C(F)(F)F)cc2C(F)(F)F)c2ccc(F)cc2)nn1 showed a viability, T/C of 67.3%.
Work on `O=c1[nH]cc(F)c(=O)[nH]1` + Nc1ccc(C#CCN(C(=O)Cc2ncc(C(F)(F)F)cc2C(F)(F)F)c2ccc(F)cc2)nn1 yielded a viability, T/C of 83%.

Same assay, conditions: second compound 0.0316 µM; first compound 0.1 µM; stronger effect = lower value
For `CC1COCCN1c1cc(-c2ccnn2C)c2ccnc(-c3ccn[nH]3)c2n1` (centres undefined) + Cc1cccc(N(C)C(=O)C2C(O)CCN2c2nc(C)cc(C(F)(F)F)c2C#N)c1, the viability, T/C was 52.1%.
`COc1cccc2c1C(=O)c1c(O)c3c(c(O)c1C2=O)CC(O)(C(=O)CO)CC3OC1CC(N)C(O)C(C)O1` (centres undefined) + Nc1ccc(C#CCN(C(=O)Cc2ncc(C(F)(F)F)cc2C(F)(F)F)c2ccc(F)cc2)nn1 was tested, and the viability, T/C was 39.4%.
For `O=c1[nH]cc(F)c(=O)[nH]1` + Nc1ccc(C#CCN(C(=O)Cc2ncc(C(F)(F)F)cc2C(F)(F)F)c2ccc(F)cc2)nn1, the viability, T/C was 88.5%.

Same assay, conditions: second compound 0.0316 µM; first compound 0.316 µM; stronger effect = lower value
With `CC1COCCN1c1cc(-c2ccnn2C)c2ccnc(-c3ccn[nH]3)c2n1` (centres undefined) + Cc1cccc(N(C)C(=O)C2C(O)CCN2c2nc(C)cc(C(F)(F)F)c2C#N)c1 the viability, T/C was 20.2%.
For `COc1cccc2c1C(=O)c1c(O)c3c(c(O)c1C2=O)CC(O)(C(=O)CO)CC3OC1CC(N)C(O)C(C)O1` (centres undefined) + Nc1ccc(C#CCN(C(=O)Cc2ncc(C(F)(F)F)cc2C(F)(F)F)c2ccc(F)cc2)nn1, the viability, T/C was 27.4%.
Compound `O=c1[nH]cc(F)c(=O)[nH]1` + Nc1ccc(C#CCN(C(=O)Cc2ncc(C(F)(F)F)cc2C(F)(F)F)c2ccc(F)cc2)nn1 has a viability, T/C of 87.4%.

Same assay, conditions: second compound 0.0316 µM; first compound 1 µM; stronger effect = lower value
Compound `CC1COCCN1c1cc(-c2ccnn2C)c2ccnc(-c3ccn[nH]3)c2n1` (centres undefined) + Cc1cccc(N(C)C(=O)C2C(O)CCN2c2nc(C)cc(C(F)(F)F)c2C#N)c1 has a viability, T/C of 17.5%.

Reference: PubChem BioAssay AID1963829 (Molecular Pharmacology Branch, DTP, NCI, 2024)
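Also: spheroids exposed to drugs for seven days before viability read.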
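For viability, T/C in this document: 100% = DMSO vehicle control wells.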
